Measurements reported in paper PMC4440792 (ChemMedChem, 2014).
Ends that are not written are not given here.

tested on: human red blood cells; assay: Hemolytic assay; assay type: cell-based; conditions: human RBCs in PBS, 37°C, 1 h; representative of 4 independent determinations

Compound	HD10 (peptide concentration that results in lysis of 10% red blood cells) [μm]
CC(C)C[C@H](NC(=O)[C@H](CCCCN)NC(=O)[C@H](C)NC(=O)[C@H](CC(C)C)NC(=O)[C@H](CCCCN)NC(=O)[C@H](CCCCN)NC(=O)[C@H](C)NC(=O)[C@H](CC(C)C)NC(=O)[C@H](CCCCN)NC(=O)[C@H](C)NC(=O)[C@H](CC(C)C)NC(=O)[C@@H](N)CCCCN)C(=O)N[C@@H](C)C(=O)N[C@@H](CCCCN)C(N)=O [PAP]	64
GGHGLLKRIKTLL-NH2 [GGH–anoplin]	16
RAGLQFPVGRVHRLLRK-NH2 [sh-Buforin]	64
GLLKRIKTLL-NH2 [Anoplin]	>64
